{
  "source": "paper PMC12198407",
  "about": "“Preclinical and first-in-human of purinostat mesylate, a novel selective HDAC I/IIb inhibitor, in relapsed/refractory multiple myeloma and lymphoma” (Signal Transduction and Targeted Therapy, 2025)",
  "key": {"HDAC4": {"target": "HDAC4 (Homo sapiens, UniProt P56524)", "sequence (P56524 whole entry)": "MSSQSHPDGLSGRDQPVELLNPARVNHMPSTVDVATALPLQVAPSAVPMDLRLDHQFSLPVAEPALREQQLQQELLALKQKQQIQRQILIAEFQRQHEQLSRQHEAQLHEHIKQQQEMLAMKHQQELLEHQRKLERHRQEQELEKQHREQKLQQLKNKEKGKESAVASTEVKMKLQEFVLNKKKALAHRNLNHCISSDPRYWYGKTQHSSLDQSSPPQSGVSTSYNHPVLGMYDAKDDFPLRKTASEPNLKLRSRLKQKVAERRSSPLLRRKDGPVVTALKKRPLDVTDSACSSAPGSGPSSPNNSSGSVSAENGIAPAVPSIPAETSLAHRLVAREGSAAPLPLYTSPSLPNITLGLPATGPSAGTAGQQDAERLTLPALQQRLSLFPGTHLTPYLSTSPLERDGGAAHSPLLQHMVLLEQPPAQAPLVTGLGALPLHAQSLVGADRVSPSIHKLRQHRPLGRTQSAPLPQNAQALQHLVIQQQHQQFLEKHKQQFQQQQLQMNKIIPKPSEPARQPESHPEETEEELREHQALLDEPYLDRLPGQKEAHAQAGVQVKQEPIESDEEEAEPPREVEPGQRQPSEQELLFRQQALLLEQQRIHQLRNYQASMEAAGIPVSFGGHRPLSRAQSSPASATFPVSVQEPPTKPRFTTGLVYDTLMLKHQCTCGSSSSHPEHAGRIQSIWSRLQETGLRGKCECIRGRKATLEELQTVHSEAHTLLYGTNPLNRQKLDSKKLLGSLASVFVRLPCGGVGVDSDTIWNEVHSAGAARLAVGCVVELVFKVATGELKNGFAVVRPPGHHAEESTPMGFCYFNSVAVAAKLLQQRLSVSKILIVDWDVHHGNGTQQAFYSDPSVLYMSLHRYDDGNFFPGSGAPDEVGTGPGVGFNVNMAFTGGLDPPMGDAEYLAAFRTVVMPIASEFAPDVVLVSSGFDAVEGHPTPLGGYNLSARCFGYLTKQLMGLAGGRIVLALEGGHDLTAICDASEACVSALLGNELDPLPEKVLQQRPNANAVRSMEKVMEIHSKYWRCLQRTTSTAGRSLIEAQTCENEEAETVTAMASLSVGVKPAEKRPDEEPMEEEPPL", "experiment": "HDAC enzyme activity in vitro", "assay_type": "biochemical"}, "HDAC5": {"target": "HDAC5 (Homo sapiens, UniProt Q9UQL6)", "sequence (Q9UQL6 whole entry)": "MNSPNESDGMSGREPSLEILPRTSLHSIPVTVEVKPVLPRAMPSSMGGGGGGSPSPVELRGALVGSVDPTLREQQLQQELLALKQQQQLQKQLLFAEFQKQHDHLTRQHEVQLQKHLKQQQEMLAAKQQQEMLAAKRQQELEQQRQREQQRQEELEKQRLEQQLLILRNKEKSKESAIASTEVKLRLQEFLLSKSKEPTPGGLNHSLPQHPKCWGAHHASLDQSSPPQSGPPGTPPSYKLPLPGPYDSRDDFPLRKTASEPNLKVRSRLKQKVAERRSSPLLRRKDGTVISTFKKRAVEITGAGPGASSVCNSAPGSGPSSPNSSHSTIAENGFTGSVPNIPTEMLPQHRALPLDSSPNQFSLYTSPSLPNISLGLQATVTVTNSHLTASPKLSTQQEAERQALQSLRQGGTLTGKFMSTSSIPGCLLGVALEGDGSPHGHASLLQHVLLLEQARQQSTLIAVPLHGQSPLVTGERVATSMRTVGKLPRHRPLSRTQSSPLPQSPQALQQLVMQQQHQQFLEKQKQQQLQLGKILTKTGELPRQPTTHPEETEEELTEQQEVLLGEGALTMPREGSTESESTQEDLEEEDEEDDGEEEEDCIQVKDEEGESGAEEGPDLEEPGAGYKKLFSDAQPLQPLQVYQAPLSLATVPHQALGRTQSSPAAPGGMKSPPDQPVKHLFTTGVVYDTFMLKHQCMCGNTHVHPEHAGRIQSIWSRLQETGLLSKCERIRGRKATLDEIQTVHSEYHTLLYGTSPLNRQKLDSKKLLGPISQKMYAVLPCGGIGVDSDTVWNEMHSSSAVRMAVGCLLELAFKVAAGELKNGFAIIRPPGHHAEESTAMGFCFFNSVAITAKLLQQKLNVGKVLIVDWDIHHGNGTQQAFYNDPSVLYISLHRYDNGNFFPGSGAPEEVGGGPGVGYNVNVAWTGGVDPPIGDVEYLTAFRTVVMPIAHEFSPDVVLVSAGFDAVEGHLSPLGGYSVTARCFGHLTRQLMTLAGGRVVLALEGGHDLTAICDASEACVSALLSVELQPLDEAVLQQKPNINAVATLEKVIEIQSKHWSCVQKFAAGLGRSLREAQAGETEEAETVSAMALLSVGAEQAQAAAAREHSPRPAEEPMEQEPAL", "experiment": "HDAC enzyme activity in vitro", "assay_type": "biochemical"}, "[1]": {"system": "hematological tumor cells", "experiment": "Proliferation, MTT or Alamar Blue", "assay_type": "cell-based", "conditions": "Homo sapiens"}, "[2]": {"system": "human Burkitt lymphoma Raji", "experiment": "Raji subcutaneous tumor model", "assay_type": "in vivo, NOD/SCID mice", "description": "In contrast, both batches of the positive control CODOX group experienced instances of individual mortality during administration."}, "[3]": {"experiment": "Chronic toxicity test, 4 weeks", "assay_type": "in vivo, rats", "protocol": "In this study, the low, medium, and high dose groups were set at 3, 10, and 30 mg/kg, respectively. The blank formulation was set at low and high doses of 45 and 450 mg/kg, corresponding to the doses of hydroxypropyl beta-cyclodextrin in the low and high dose groups of injectable Purinostat Mesylate. Dosing occurred once every two days, three times a week, for a total of four weeks, with some animals undergoing a four-week recovery period after the treatment ended. The main results indicated no mortality. In the high-dose group, symptoms included sparse fur, reduced activity, and scabbing at the injection site. […] The primary toxic target organs or systems included the immune system (spleen, thymus, various lymph nodes), submandibular gland, bone marrow, testis, and epididymis."}, "[4]": {"experiment": "Acute toxicity test, intravenous", "assay_type": "in vivo, Beagle dogs", "protocol": "In this study, the designed doses were 10 and 50 mg/kg administered intravenously. […] The maximum tolerated dose (MTD) was determined to be 10 mg/kg."}, "[5]": {"experiment": "Chronic toxicity test, intravenous", "assay_type": "in vivo, Beagle dogs", "protocol": "In this study, the low, medium, and high dose groups were set at 0.3, 1, and 3 mg/kg, respectively. The excipient was set at a high dose of 45 mg/kg. In the low dose group, occasional vomiting was observed; in the medium dose group, symptoms included vomiting, loose stools, and dark red stools; in the high dose group, symptoms included vomiting and dark red stools. Four dogs (4/10, 2 females and 2 males) died between days 13 and 26 of the experiment. […] The primary toxic target organs or systems included the immune system (spleen, thymus, lymph nodes), digestive system (esophagus, liver, pancreas, intestine), kidneys, heart, lungs, trachea, testes, bone marrow, and injection site. There was a dose-dependent relationship, and recovery was observed during the recovery period. The highest no serious toxicity dose (HNSTD) was determined to be 1 mg/kg."}, "CHL cells": {"system": "CHL cells", "experiment": "In vitro chromosomal aberration test", "assay_type": "cell-based", "conditions": "30–1000 µg/mL 4 h ±S9; 3.75–30 µg/mL 24 h", "protocol": "This experiment employed two methods: one without the S9 metabolic activation system and one with the S9 metabolic activation system. The method without the S9 metabolic activation system utilized two exposure times of 4 hours and 24 hours, while the method with the S9 metabolic activation system used a 4-hour exposure time. The test was conducted using a 2% dosing volume ratio. Under the 4-hour exposure conditions, the final concentrations of Purinostat Mesylate were set at 30, 100, 300, and 1000 µg/mL; under the 24-hour exposure conditions, the final concentrations were set at 3.75, 7.5, 15, and 30 µg/mL. Additionally, a solvent control group (DMSO) and a positive control group (administering the appropriate positive agent) were included. After the culture period for each concentration group, cells were collected and prepared for microscopy. After Giemsa staining, 1000 cells were observed under a microscope to record the number of cells in the metaphase stage and calculate the mitotic index inhibition rate for each group. For chromosome aberration assessment, 200 metaphase cells were observed, and the chromosome aberration rate was calculated for each group."}, "[6]": {"experiment": "Fertility, embryo and fetal developmental toxicity test", "design": "species or system SD rats", "conditions": "SD, rat, in vivo, intravenous", "protocol": "Male SD rats were administered intravenous injections of Purinostat Mesylate at doses of 3, 10, and 20 mg/kg every two days from 4 weeks prior to mating until the end of mating. Female SD rats received the same treatment from 2 weeks prior to mating until day 7 of pregnancy. The no observed adverse effect level (NOAEL) for males was less than 3 mg/kg, while for females it was 20 mg/kg. The NOAEL for reproductive toxicity in both male and female rats was 3 mg/kg, and the NOAEL for early embryonic development was less than 3 mg/kg."}, "[7]": {"experiment": "Plasma level in wild-type mice", "assay_type": "in vivo", "conditions": "single i.v. 5 mg/kg, listed as Purinostat Mesylate", "protocol": "The mean residence times (MRT) were 6.00 ± 1.00 h, 24.8 ± 1.03 h, and 23.4 ± 3.59 h, respectively. […] However, in Ighmyc mice, the plasma drug concentration after the same duration was 7.11 ± 3.15 ng/mL. […] The pharmacokinetic characteristics support the notion that spaced dosing of the drug can still maintain favorable pharmacodynamic outcomes."}, "CYP2C19": {"target": "T1, CYP2C19 (Homo sapiens, UniProt P33261)", "T1 construct": "human liver microsomal cytochrome P450 isoenzymes; from tissue; host or cells: human liver microsomes", "T1 sequence (P33261 whole entry)": "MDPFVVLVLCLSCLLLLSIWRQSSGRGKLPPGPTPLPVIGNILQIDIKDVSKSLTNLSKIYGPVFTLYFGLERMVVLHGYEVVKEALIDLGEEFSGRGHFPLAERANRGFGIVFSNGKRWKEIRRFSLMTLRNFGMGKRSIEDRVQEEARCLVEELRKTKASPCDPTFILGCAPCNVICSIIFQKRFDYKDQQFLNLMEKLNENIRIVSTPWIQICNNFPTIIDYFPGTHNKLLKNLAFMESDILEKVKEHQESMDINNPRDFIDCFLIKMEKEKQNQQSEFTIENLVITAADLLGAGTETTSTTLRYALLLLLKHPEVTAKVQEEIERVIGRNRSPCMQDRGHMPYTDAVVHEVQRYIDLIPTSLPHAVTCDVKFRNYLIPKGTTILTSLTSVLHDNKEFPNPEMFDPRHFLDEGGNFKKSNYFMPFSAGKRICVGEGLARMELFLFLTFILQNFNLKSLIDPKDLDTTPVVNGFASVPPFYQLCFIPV", "experiment": "CYP inhibition, human liver microsomes", "assay_type": "in vitro ADME"}, "[8]": {"experiment": "Metabolic stability in liver microsomes", "assay_type": "in vitro ADME", "conditions": "for half-life at 1 µM: NADPH, 37°C; for CLint scaled at 1 µM: read-out: liver intrinsic clearance (CLint)", "protocol": "The metabolic stability of Purinostat Mesylate was evaluated in CD-1 mice, SD rats, Beagle dogs, crab-eating monkeys, and human liver microsomes. Under conditions of 37°C, 1 µM of Purinostat Mesylate was incubated with liver microsomes from the five species mentioned above, supplemented with a NADPH regeneration system, for varying durations up to 60 minutes. The concentration of Purinostat Mesylate in the resulting samples was analyzed using LC/MS/MS."}},
  "note": "“Also recorded” adds a separate entry of the source. Like-named read-outs stand apart in the source and are kept apart here.",
  "data": [
    {"smiles": "CN(Cc1nc2c(N3CCOCC3)nc(-c3ccc(N)cc3)nc2n1C)c1ncc(C(=O)NO)cn1.CS(=O)(=O)O", "note": "[PM, 2-(((2-(4-Aminophenyl)-9-methyl-6-(4-morpholinyl)-9H-purine-8-yl)methyl)methylamino)-N-hydroxy-5-pyrimidine-carboxamide Mesylate]", "values": [
      {"measurement": "IC50", "setting": "HDAC4", "result": 1070, "unit": "nM"},
      {"measurement": "IC50", "setting": "HDAC5", "result": 426, "unit": "nM"},
      {"measurement": "IC50", "setting": "[1]; read-out: IC50, hematological tumor cells", "result": "< 10", "unit": "nM"},
      {"measurement": "IC50", "setting": "[1]; some cell lines, read-out: IC50, hematological tumor cell lines", "result": "< 1", "unit": "nM"},
      {"measurement": "T/C", "setting": "[2]; 1.25 mg/kg", "result": "48.13±5.13", "unit": "%"},
      {"measurement": "tumor inhibition rate", "setting": "[2]; 1.25 mg/kg, mean of two batches", "result": "52.03 ± 3.36", "unit": "%"},
      {"measurement": "T/C", "setting": "[2]; 2.5 mg/kg", "result": "31.86±8.56", "unit": "%"},
      {"measurement": "tumor inhibition rate", "setting": "[2]; 2.5 mg/kg", "result": "66.15 ± 12.49", "unit": "%"},
      {"measurement": "T/C", "setting": "[2]; 5 mg/kg", "result": "18.11±7.50", "unit": "%"},
      {"measurement": "tumor inhibition rate", "setting": "[2]; 5 mg/kg", "result": "81.65 ± 8.67", "unit": "%"},
      {"measurement": "T/C", "setting": "[2]; 10 mg/kg", "result": "7.75±5.02", "unit": "%"},
      {"measurement": "tumor inhibition rate", "setting": "[2]; 10 mg/kg", "result": "89.98 ± 8.01", "unit": "%"},
      {"measurement": "median survival time", "setting": "[2]; satellite group, 10 mg/kg", "result": 39, "unit": "days"},
      {"measurement": "mortality", "setting": "[3]; 3, 10, 30 mg/kg", "result": "no mortality"},
      {"measurement": "highest no serious toxicity dose (HNSTD)", "setting": "[3]; three times a week, four weeks", "result": 30, "unit": "mg/kg"},
      {"measurement": "mortality", "setting": "[4]; 50 mg/kg", "result": "all animals dying between days 2 and 4"},
      {"measurement": "MTD", "setting": "[4]; beagle, dog, in vivo, iv, single i.v., read-out: maximum tolerated dose (MTD)", "result": 10, "unit": "mg/kg"},
      {"measurement": "NOAEL", "setting": "[5]; both sexes, beagle, dog, in vivo, intravenous", "result": "< 0.3", "unit": "mg/kg"},
      {"measurement": "highest no serious toxicity dose (HNSTD)", "setting": "[5]; both, beagle, dog, in vivo, intravenous", "result": 1, "unit": "mg/kg"},
      {"measurement": "dogs that died", "setting": "[5]; high dose 3 mg/kg, days 13 to 26", "result": "4/10"},
      {"measurement": "prolongation of QTc", "setting": "[5]; high dose group, male dogs", "result": 9.6, "unit": "%"},
      {"measurement": "chromosomal aberration test result", "setting": "CHL cells", "result": "negative"},
      {"measurement": "NOAEL", "setting": "[6]", "result": "< 3", "unit": "mg/kg"},
      {"measurement": "NOAEL", "setting": "[6]; both sexes", "result": 3, "unit": "mg/kg"},
      {"measurement": "NOAEL", "setting": "[6]; female", "result": 20, "unit": "mg/kg"},
      {"measurement": "NOAEL", "setting": "[6]; male", "result": "< 3", "unit": "mg/kg"},
      {"measurement": "plasma drug concentration at 24 hours", "setting": "[7]", "result": "no drug concentration was detected in the plasma at 24 hours; also recorded: no drug concentration was detectable in plasma after 24 hours; also recorded: undetectable"},
      {"measurement": "IC50", "setting": "CYP2C19", "result": "> 10000", "unit": "nM"},
      {"measurement": "half-life at 1 µM", "setting": "[8]; Beagle, dog", "result": 1.63, "unit": "h"},
      {"measurement": "CLint scaled at 1 µM", "setting": "[8]; Beagle, dog", "result": 20.4, "unit": "mL/min/kg"},
      {"measurement": "half-life at 1 µM", "setting": "[8]; CD-1, mouse", "result": "> 3.1", "unit": "h"},
      {"measurement": "CLint scaled at 1 µM", "setting": "[8]; CD-1, mouse", "result": "< 29.7", "unit": "mL/min/kg"},
      {"measurement": "half-life at 1 µM", "setting": "[8]; SD, rat", "result": "> 3.1", "unit": "h"},
      {"measurement": "CLint scaled at 1 µM", "setting": "[8]; SD, rat", "result": "< 13.5", "unit": "mL/min/kg"},
      {"measurement": "half-life at 1 µM", "setting": "[8]; human", "result": "> 3.1", "unit": "h"},
      {"measurement": "CLint scaled at 1 µM", "setting": "[8]; human", "result": "< 6.8", "unit": "mL/min/kg"},
      {"measurement": "half-life at 1 µM", "setting": "[8]; monkey", "result": 0.0517, "unit": "h"},
      {"measurement": "CLint scaled at 1 µM", "setting": "[8]; monkey", "result": 598, "unit": "mL/min/kg"}
    ]}
  ]
}
